Assay results published in patent publication US20130029928A1 (priority 2010, published 2013).
Where two headings read alike, the source gives them in different places.

Assay: Phase I study CXR1002-001: plasma pharmacokinetics (LC-MS/MS)
Format: in vivo, human
Conditions: for concentration at 168 h: 168 hr (Day 8); for concentration at 504 h: 504 hr (Day 22); for concentration at 840 h: 840 hr (Day 36); for concentration at 696 h: 696 hr (Day 29)
From the text: PK samples, PD (fasting) samples, blood glucose, and blood triglyceride samples, were taken over a 6-week period.
Dose limiting toxicity (DLT) will be based on the toxicity assessments over the first 3-week period of the repeat dosing schedule. PK samples (single blood sample) were taken on the following basis: • Every 6 weeks during the repeat dosing phase • If dosing is interrupted or stopped, samples will be taken at intervals according to patient convenience • PK sampling for safety evaluation may take place at any time, as clinically indicated
Plasma samples were collected after the single 50 mg dose at the following timepoints: Pre-dose, and then 0.25, 0.5, 0.75, 1, 1.5, 2, 3, 4, 6, 24, 48, and 72 hours after administration and then once weekly at weeks 2, 3, 4, 5, and 6 (days 8, 15, 22, 29, and 36). For patients treated with the weekly repeat dose, plasma samples were collected at the following timepoints: Pre-dose and then 2, 3, 4 and 24 hours after administration for a total of 6 weeks. Thereafter a single sample was collected every 6 weeks for monitoring of exposure during long term treatment. Plasma samples were processed at site and stored at −80° C. prior to batch shipment to the analytical laboratory.

[1] = female, human, plasma, oral, Female, plasma, read-out: Concentration
[2] = human, plasma, oral, 50 mg, Patient 001 Dose 50 mg
[3] = human, plasma, oral, 50 mg, Patient 001 Dose 50 mg, read-out: Concentration
[4] = human, plasma, oral, 50 mg, Patient 002 Dose 50 mg
[5] = human, plasma, oral, 50 mg, Patient 002 Dose 50 mg, read-out: Concentration
[6] = human, plasma, oral, 50 mg, Patient 003 Dose 50 mg
[7] = human, plasma, oral, 50 mg, Patient 003 Dose 50 mg, read-out: Concentration
[8] = human, plasma, oral, 50 mg, Patient 004 Dose 50 mg, read-out: Concentration
[9] = human, plasma, oral, 100 mg, Patient 005 Dose 100 mg, read-out: Concentration

O=C(O)C(F)(F)C(F)(F)C(F)(F)C(F)(F)C(F)(F)C(F)(F)C(F)(F)F [CXR1002]
maximal plasma level recorded (1200 mg weekly dose over a 5 week period, one patient): 1530 µM
Concentration (Patient 032, 950 mg, person, plasma, 0 hr (pre-dose)): BLQ
oral bioavailability (clinical trials): orally bioavailable
concentration at 168 h [1]: 146 µM
concentration at 170 h [1]: 276 µM
concentration at 171 h [1]: 253 µM
concentration at 172 h [1]: 248 µM
concentration at 192 h (female, human, plasma, oral, Female, plasma, 192 hr (Day 9), read-out: Concentration): 246 µM
concentration at 504 h [1]: 333 µM
concentration at 506 h [1]: 427 µM
concentration at 507 h [1]: 412 µM
concentration at 528 h (female, human, plasma, oral, Female, plasma, 528 hr (Day 23), read-out: Concentration): 405 µM
concentration at 840 h [1]: 434 µM
concentration at 842 h [1]: 461 µM
concentration at 843 h [1]: 457 µM
concentration at 844 h (female, human, plasma, oral, Female, plasma, 844 hr, read-out: Concentration): 482 µM
concentration at 864 h (female, human, plasma, oral, Female, plasma, 864 hr (Day 37), read-out: Concentration): 526 µM
concentration at 0 h (human, plasma, oral, 50 mg, Patient 001 Dose 50 mg, 0 hr): 0 µM
concentration at 0.25 h [2]: 0.35 µM
concentration at 0.5 hr (human, plasma, oral, 50 mg, Patient 001 Dose 50 mg, 0.5 hr): 1.11 µM
concentration at 0.75 hr (human, plasma, oral, 50 mg, Patient 001 Dose 50 mg, 0.75 hr): 9.17 µM
concentration at 1 hr (human, plasma, oral, 50 mg, Patient 001 Dose 50 mg, 1 hr): 14.4 µM
concentration at 1.5 h [2]: 25.7 µM
concentration at 2 h (human, plasma, oral, 50 mg, Patient 001 Dose 50 mg, 2 hr, read-out: Concentration): 22.5 µM
concentration at 3 h [3]: 20.8 µM
concentration at 6 h [2]: 14.7 µM
concentration at 24 h (human, plasma, oral, 50 mg, Patient 001 Dose 50 mg, 24 hr, read-out: Concentration): 13.8 µM
concentration at 48 h [2]: 12.8 µM
concentration at 72 hr (human, plasma, oral, 50 mg, Patient 001 Dose 50 mg, 72 hr): 9.7 µM
concentration at 192 hr (human, plasma, oral, 50 mg, Patient 001 Dose 50 mg, 192 hr (Day 8), read-out: Concentration): 8.54 µM
concentration at 360 hr (human, plasma, oral, 50 mg, Patient 001 Dose 50 mg, 360 hr (Day 15), read-out: Concentration): 8.63 µM
concentration at 528 h (human, plasma, oral, 50 mg, Patient 001 Dose 50 mg, 528 hr (Day 22), read-out: Concentration): 11.6 µM
concentration at 696 h [3]: 10.2 µM
concentration at 864 h (human, plasma, oral, 50 mg, Patient 001 Dose 50 mg, 864 hr (Day 36), read-out: Concentration): 8.89 µM
concentration at 144 day (human, plasma, oral, 50 mg, Patient 001 Dose 50 mg, Day 144): 226 µM
concentration at 179 day (human, plasma, oral, 50 mg, Patient 001 Dose 50 mg, Day 179): 250 µM
concentration at 227 day (human, plasma, oral, 50 mg, Patient 001 Dose 50 mg, Day 227): 308 µM
concentration at 268 day (human, plasma, oral, 50 mg, Patient 001 Dose 50 mg, Day 268): 268 µM
concentration at 0 h (human, plasma, oral, 50 mg, Patient 002 Dose 50 mg, 0 hr): 0 µM
concentration at 0.25 h [4]: 3.06 µM
concentration at 0.5 h (human, plasma, oral, 50 mg, Patient 002 Dose 50 mg, 0.5 hr): 7.62 µM
concentration at 0.75 h (human, plasma, oral, 50 mg, Patient 002 Dose 50 mg, 0.75 hr): 8.39 µM
concentration at 1 h (human, plasma, oral, 50 mg, Patient 002 Dose 50 mg, 1 hr): 8.55 µM
concentration at 1.5 h [4]: 29.8 µM
concentration at 3 h [5]: 22.8 µM
concentration at 4 h (human, plasma, oral, 50 mg, Patient 002 Dose 50 mg, 4 hr, read-out: Concentration): 14.5 µM
concentration at 6 h [4]: 17.5 µM
concentration at 24 h (human, plasma, oral, 50 mg, Patient 002 Dose 50 mg, 24 hr, read-out: Concentration): 14.3 µM
concentration at 48 h [4]: 13.3 µM
concentration at 72 h (human, plasma, oral, 50 mg, Patient 002 Dose 50 mg, 72 hr): 15.6 µM
concentration at 192 h (human, plasma, oral, 50 mg, Patient 002 Dose 50 mg, 192 hr (Day 8), read-out: Concentration): 17.2 µM
concentration at 360 h (human, plasma, oral, 50 mg, Patient 002 Dose 50 mg, 360 hr (Day 15), read-out: Concentration): 18.6 µM
concentration at 528 h (human, plasma, oral, 50 mg, Patient 002 Dose 50 mg, 528 hr (Day 22), read-out: Concentration): 21.5 µM
concentration at 696 h [5]: 21 µM
concentration at 864 h (human, plasma, oral, 50 mg, Patient 002 Dose 50 mg, 864 hr (Day 36), read-out: Concentration): 20.1 µM
concentration at 0 h (human, plasma, oral, 50 mg, Patient 003 Dose 50 mg, 0 hr): 0.14 µM
concentration at 0.25 h [6]: 1.08 µM
concentration at 0.5 h (human, plasma, oral, 50 mg, Patient 003 Dose 50 mg, 0.5 hr): 11.3 µM
concentration at 0.75 h (human, plasma, oral, 50 mg, Patient 003 Dose 50 mg, 0.75 hr): 17.1 µM
concentration at 1 h (human, plasma, oral, 50 mg, Patient 003 Dose 50 mg, 1 hr): 20.7 µM
concentration at 1.5 h [6]: 24.6 µM
concentration at 2 h (human, plasma, oral, 50 mg, Patient 003 Dose 50 mg, 2 hr, read-out: Concentration): 24.5 µM
concentration at 3 h [7]: 21.2 µM
concentration at 4 h (human, plasma, oral, 50 mg, Patient 003 Dose 50 mg, 4 hr, read-out: Concentration): 18 µM
concentration at 24 h (human, plasma, oral, 50 mg, Patient 003 Dose 50 mg, 24 hr, read-out: Concentration): 19.5 µM
concentration at 48 h [6]: 18.1 µM
concentration at 72 h (human, plasma, oral, 50 mg, Patient 003 Dose 50 mg, 72 hr): 18.4 µM
concentration at 192 h (human, plasma, oral, 50 mg, Patient 003 Dose 50 mg, 192 hr (Day 8), read-out: Concentration): 8.6 µM
concentration at 360 h (human, plasma, oral, 50 mg, Patient 003 Dose 50 mg, 360 hr (Day 15), read-out: Concentration): 7.2 µM
concentration at 528 h (human, plasma, oral, 50 mg, Patient 003 Dose 50 mg, 528 hr (Day 22), read-out: Concentration): 6.5 µM
concentration at 696 h [7]: 5 µM
concentration at 864 h (human, plasma, oral, 50 mg, Patient 003 Dose 50 mg, 864 hr (Day 36), read-out: Concentration): 6.5 µM
concentration at 0 hr (human, plasma, oral, 50 mg, Patient 004 Dose 50 mg, 0 hr): 0.1 µM
concentration at 2 hr (human, plasma, oral, 50 mg, Patient 004 Dose 50 mg, 2 hr, read-out: Concentration): 19.9 µM
concentration at 4 hr (human, plasma, oral, 50 mg, Patient 004 Dose 50 mg, 4 hr, read-out: Concentration): 19.3 µM
concentration at 24 hr (human, plasma, oral, 50 mg, Patient 004 Dose 50 mg, 24 hr (Day 2), read-out: Concentration): 14.4 µM
concentration at 168 h [8]: 12.8 µM
concentration at 170 h [8]: 35.7 µM
concentration at 171 h [8]: 40.4 µM
concentration at 172 h [8]: 36 µM
concentration at 192 h (human, plasma, oral, 50 mg, Patient 004 Dose 50 mg, 192 hr (Day 9), read-out: Concentration): 22.5 µM
concentration at 336 hr (human, plasma, oral, 50 mg, Patient 004 Dose 50 mg, 336 hr (Day 15), read-out: Concentration): 21.8 µM
concentration at 338 hr (human, plasma, oral, 50 mg, Patient 004 Dose 50 mg, 338 hr, read-out: Concentration): 31.1 µM
concentration at 339 hr (human, plasma, oral, 50 mg, Patient 004 Dose 50 mg, 339 hr, read-out: Concentration): 38.8 µM
concentration at 340 hr (human, plasma, oral, 50 mg, Patient 004 Dose 50 mg, 340 hr, read-out: Concentration): 40.6 µM
concentration at 360 hr (human, plasma, oral, 50 mg, Patient 004 Dose 50 mg, 360 hr (Day 16), read-out: Concentration): 38.8 µM
concentration at 504 h [8]: 33.4 µM
concentration at 506 h [8]: 46.3 µM
concentration at 507 h [8]: 50.4 µM
concentration at 508 h (human, plasma, oral, 50 mg, Patient 004 Dose 50 mg, 508 hr, read-out: Concentration): 47.9 µM
concentration at 528 h (human, plasma, oral, 50 mg, Patient 004 Dose 50 mg, 528 hr (Day 23), read-out: Concentration): 50 µM
concentration at 672 hr (human, plasma, oral, 50 mg, Patient 004 Dose 50 mg, 672 hr (Day 29), read-out: Concentration): 52.3 µM
concentration at 674 hr (human, plasma, oral, 50 mg, Patient 004 Dose 50 mg, 674 hr, read-out: Concentration): 65.8 µM
concentration at 675 hr (human, plasma, oral, 50 mg, Patient 004 Dose 50 mg, 675 hr, read-out: Concentration): 61.7 µM
concentration at 676 hr (human, plasma, oral, 50 mg, Patient 004 Dose 50 mg, 676 hr, read-out: Concentration): 56.7 µM
concentration at 696 hr (human, plasma, oral, 50 mg, Patient 004 Dose 50 mg, 696 hr (Day 30), read-out: Concentration): 77.5 µM
concentration at 840 h [8]: 63 µM
concentration at 842 h [8]: 78.6 µM
concentration at 843 h [8]: 80.5 µM
concentration at 864 h (human, plasma, oral, 50 mg, Patient 004 Dose 50 mg, 864 hr (Day 37), read-out: Concentration): 81.1 µM
half-life (human, plasma, oral, 50 mg, after a single dose, 6 week sampling period, read-out: half-life of elimination): > 42 days
concentration at 0 h (human, plasma, oral, 100 mg, Patient 005 Dose 100 mg, 0 hr): 0.23 µM
concentration at 2 h (human, plasma, oral, 100 mg, Patient 005 Dose 100 mg, 2 hr, read-out: Concentration): 19.8 µM
concentration at 3 h [9]: 23 µM
concentration at 4 h (human, plasma, oral, 100 mg, Patient 005 Dose 100 mg, 4 hr, read-out: Concentration): 23.7 µM
concentration at 24 h (human, plasma, oral, 100 mg, Patient 005 Dose 100 mg, 24 hr (Day 2), read-out: Concentration): 19.9 µM
concentration at 168 h [9]: 19 µM
concentration at 170 h [9]: 42.9 µM
concentration at 171 h [9]: 50.8 µM
concentration at 172 h [9]: 45.7 µM
concentration at 192 h (human, plasma, oral, 100 mg, Patient 005 Dose 100 mg, 192 hr (Day 9), read-out: Concentration): 34.4 µM
concentration at 336 h (human, plasma, oral, 100 mg, Patient 005 Dose 100 mg, 336 hr (Day 15), read-out: Concentration): 47.8 µM
concentration at 338 h (human, plasma, oral, 100 mg, Patient 005 Dose 100 mg, 338 hr, read-out: Concentration): 80.2 µM
concentration at 339 h (human, plasma, oral, 100 mg, Patient 005 Dose 100 mg, 339 hr, read-out: Concentration): 70.1 µM
concentration at 340 h (human, plasma, oral, 100 mg, Patient 005 Dose 100 mg, 340 hr, read-out: Concentration): 53.9 µM
